According to ChEMBL document CHEMBL1128883, “Synthesis and bioassay of a protein tyrosine phosphatase inhibitor, dephostatin” (Bioorg Med Chem Lett, 1995):

Assays:
[1] = biological target: T1, Tyrosine-protein phosphatase non-receptor type 1 (Homo sapiens) (UniProt P18031); assay: The rate constant for the inactivation of mammalian Protein-tyrosine phosphatase 1 (PTP1 ) was evaluated
T1 sequence (whole entry): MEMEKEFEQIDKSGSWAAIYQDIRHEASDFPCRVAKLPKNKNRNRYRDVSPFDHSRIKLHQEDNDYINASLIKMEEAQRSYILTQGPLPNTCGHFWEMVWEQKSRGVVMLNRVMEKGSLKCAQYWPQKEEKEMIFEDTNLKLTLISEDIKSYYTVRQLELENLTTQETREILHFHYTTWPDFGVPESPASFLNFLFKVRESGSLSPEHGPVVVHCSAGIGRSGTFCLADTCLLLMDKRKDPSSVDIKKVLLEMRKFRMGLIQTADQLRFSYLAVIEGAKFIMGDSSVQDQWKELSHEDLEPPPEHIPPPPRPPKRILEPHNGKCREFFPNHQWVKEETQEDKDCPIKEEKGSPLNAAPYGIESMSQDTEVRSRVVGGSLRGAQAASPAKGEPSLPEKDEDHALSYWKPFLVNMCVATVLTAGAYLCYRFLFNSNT

[2] = biological target: T1, Tyrosine-protein phosphatase non-receptor type 1 (Homo sapiens); assay: Apparent pseudo-first-order rate constant of inactivation of Protein Tyrosine Phosphatase (PTP) was determined; value given as 1-25
[3] = biological target: T1, Tyrosine-protein phosphatase non-receptor type 1 (Homo sapiens); assay: Apparent pseudo-first-order rate constant of inactivation of Protein Tyrosine Phosphatase (PTP) was determined; value given as 0.5-2.8

`CN(N=O)c1ccccc1` showed a Rate constant [1] of 0.0167 M⁻¹ s⁻¹ and a Rate constant [2] of 1 mM.
`CN(N=O)c1cc(O)ccc1O` gave a Rate constant [1] of 1.08 M⁻¹ s⁻¹ and a Rate constant [3] of 0.5 mM.
